{
  "source": "patent US20040091960A1",
  "about": "“Novel physiologically active peptides and use thereof” (priority 2000, published 2004)",
  "system": "LH secretion",
  "assay": "LH secretion promoting action (LH blood level)",
  "assay_type": "in vivo",
  "details": "statement only, no experiment described",
  "data": [
    {"substance": "polypeptide of the present invention: mouse matured GALR2 ligand, amino acid sequence SEQ ID NO: 1, ligand peptide for galanin receptor (APAHRGRGGWTLNSAGYLLGPVLPVSSKADQGRKRDSALEILDLWKIIDGLPYSHSPRMT; Mouse)", "values": [
      {"measurement": "LH secretion promoting action (LH blood level increasing action)", "value": "specific LH blood level increasing action"}
    ]}
  ]
}
